Source: PubChem BioAssay (NCI)
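Cells were grown in 96-well plates and exposed to each compound for 48 hours at five concentrations; endpoints were interpolated linearly between bracketing concentrations, or set to the highest concentration if not reached. TGI denotes the concentration required for complete inhibition of growth.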 Where a SMILES comes first, the peptide text is derived from it. The star is where a group is joined. Boc = CC(C)(C)OC(=O)*

Tests used:
Assay in all cases: NCI-60 cell line screen, 48 h
SNB-75 CNS = test system: SNB-75 CNS
HOP-62 NSCLC = test system: HOP-62 NSCLC
MDA-MB-435 = test system: MDA-MB-435
SK-OV-3 ovarian = test system: SK-OV-3 ovarian
CAKI-1 renal = test system: CAKI-1 renal
NCI-H23 lung = test system: NCI-H23 lung
SK-MEL-28 melanoma = test system: SK-MEL-28 melanoma
RPMI-8226 leukemia = test system: RPMI-8226 leukemia
SF-295 CNS = test system: SF-295 CNS
U251 CNS = test system: U251 CNS
ACHN renal = test system: ACHN renal
EKVX NSCLC = test system: EKVX NSCLC
MALME-3M melanoma = test system: MALME-3M melanoma
UACC-62 melanoma = test system: UACC-62 melanoma
COLO 205 colon = test system: COLO 205 colon
PC-3 prostate = test system: PC-3 prostate

Compound | TGI (SNB-75 CNS) [µM] | TGI (HOP-62 NSCLC) [µM] | TGI (MDA-MB-435) [µM] | TGI (SK-OV-3 ovarian) [µM] | TGI (CAKI-1 renal) [µM] | TGI (NCI-H23 lung) [µM] | TGI (SK-MEL-28 melanoma) [µM] | TGI (RPMI-8226 leukemia) [µM] | TGI (SF-295 CNS) [µM] | TGI (U251 CNS) [µM] | TGI (ACHN renal) [µM] | TGI (EKVX NSCLC) [µM] | TGI (MALME-3M melanoma) [µM] | TGI (UACC-62 melanoma) [µM] | TGI (COLO 205 colon) [µM] | TGI (PC-3 prostate) [µM]
C[n+]1ccc(/C2=C3\C=CC(=N3)/C(c3cc[n+](C)cc3)=c3/cc/c([nH]3)=C(\c3cc[n+](C)cc3)C3=N/C(=C(/c4cc[n+](C)cc4)C4C=CC2N4)C=C3)cc1 | > 100 | > 100 | > 100 | > 100 | > 100 | > 100 | > 100 | > 100 | > 100 | > 32.2 | > 100 | > 100 | > 100 | > 100 | > 100 | 
COc1cccc(OC)c1C(=O)OCc1ccccc1 | > 100 | > 100 |  | > 100 | > 100 | > 100 | > 100 | > 100 | > 100 | > 100 | > 100 | > 100 |  | > 100 | > 100 | 
COC1/C=C/C(C)C(C(C)C(OC)C(C)CCC(=O)C(C)C(C/C=C/N(C)C=O)OC)OC(=O)C=CC2OC2(C)CC(OC)C(OC)C2=CC(=O)O[C@@H](C(C)C(OC)CC(OC)/C=C/C(C)C(O)C1)[C@H]2O (stereo partly specified) |  | 0.0227 | > 1.24 | 0.0667 | 0.0203 | > 0.322 |  | > 1.24 | 0.0236 | 0.0416 | 0.016 | 0.0163 | 0.854 | 0.0514 |  | 0.0297
COC(=O)[C@@H]1[C@H](OC(C)=O)CCC2[C@@]3(C[C@@H](c4ccoc4)O[C@@H]3OC)[C@H](C)CC[C@]21C(=O)OC (stereo partly specified) | > 25 |  | > 25 | > 25 | > 25 | > 25 |  | > 25 | > 25 | > 25 | > 25 | > 25 |  | > 25 | > 25 | > 25
CCn1c2ccccc2c2ccc3c(c21)C(=O)C=CC3=O | 63.3 | 40 |  | 34 |  | 51.1 | 33.3 | > 100 | 44.5 | 31.7 | 30.2 | 30 | 22 |  | 24.1 | 
COc1cc2c(c(OC)c1)/C(=C/Sc1ccccc1)C(=O)N(C(C)(C)C)C2 |  | 83.8 | 55.2 | 76.9 | > 100 | 77.1 | > 100 | 94.5 | 75.5 | 98.6 | > 100 | > 100 |  | 90 | 50.6 | > 100
C/C(=N\Nc1ccc([N+](=O)[O-])cc1[N+](=O)[O-])c1sc(-n2nc(-c3ccccc3)cc2-c2ccccc2)nc1C | > 100 | > 100 | > 100 | > 100 | > 100 | > 100 | > 100 | 41.4 | > 100 | > 100 | > 100 | > 100 | > 100 | > 100 | 67.4 | 
Cc1ccccc1-n1c(=O)c2ncn(C3CCCO3)c2n(-c2ccccc2C)c1=S (stereo unspecified) | > 100 | > 100 | > 100 | > 100 | > 100 | > 100 |  | > 100 | > 100 |  | > 100 | > 100 | > 100 | > 100 | > 100 | 
CCCCCCCOc1ccc(/C=C\c2cc[n+](CCCCCCCC[n+]3ccc(/C=C\c4ccc(OCCCCCCC)cc4)cc3)cc2)cc1 | > 100 | > 100 |  | 57.8 | 63.7 | > 100 | 32.2 | > 100 | > 100 | 24.6 | > 100 | > 100 | 33.7 | > 100 | 58.7 | 
N#Cc1sc2c(c1OC(=O)c1ccccc1)c(=O)n(-c1ccccc1)c(=S)n2-c1ccccc1 |  | 46.5 | 67.9 | > 100 | > 100 | 58.9 | 72.4 | 66.5 | 70.3 | 53.3 |  | 68.6 | 50 | 40.9 | 34.2 | 66.6
COc1cccc(NC(=O)CSc2nnc(-c3ccc(NC(C)=O)cc3)o2)c1 | > 100 | > 100 |  | > 100 | > 100 | > 100 | > 100 | > 100 | > 100 | > 100 | > 100 |  | > 100 | > 100 | > 100 | 
COc1cc2c(cc1OC)C1C=NC(C2)c2cc(OC)c(OC)cc21 (stereo unspecified) | > 100 | > 100 | > 100 | > 100 | > 100 |  | > 100 | > 100 | > 100 | > 100 | > 100 | > 100 |  | > 100 | > 100 | > 100
C=CC[C@@H](N)C(=O)N(C)[C@@H](C)[C@@H](O)c1ccccc1 | > 100 | > 100 | > 100 | > 100 | > 100 | > 100 | > 100 |  | > 100 | > 100 | > 100 |  |  | > 100 | > 100 | > 100
CC(C)(C)OC(=O)NC(Cc1ccc(O)cc1)C(=O)N1CCCC1C(=O)O (stereo not drawn) (Boc-Tyr-Pro-OH; configuration not given here) | > 100 | > 100 |  | > 100 | > 100 | > 100 | > 100 | > 100 | > 100 | > 100 | > 100 | > 100 | > 100 | > 100 | > 100 | 
CCN1CCC(C)OP1(=O)Cc1ccccc1 (stereo unspecified) |  | > 100 | > 100 | > 100 | > 100 | > 100 |  | > 100 | > 100 | > 100 | > 100 | > 100 | > 100 | > 100 | > 100 | > 100
C/C=C1\CN2CCc3c([nH]c4ccccc34)C2CC1C(=O)OC (stereo unspecified) |  | > 322 |  | > 322 | > 322 | > 322 | > 322 | > 322 | > 322 | > 322 | > 322 | > 322 | > 322 | > 322 | > 322 | 

Compound | TGI (SNB-75 CNS) [µM] | TGI (HOP-62 NSCLC) [µM] | TGI (MDA-MB-435) [µM] | TGI (SK-OV-3 ovarian) [µM] | TGI (CAKI-1 renal) [µM] | TGI (NCI-H23 lung) [µM] | TGI (SK-MEL-28 melanoma) [µM] | TGI (RPMI-8226 leukemia) [µM] | TGI (SF-295 CNS) [µM] | TGI (U251 CNS) [µM] | TGI (ACHN renal) [µM] | TGI (EKVX NSCLC) [µM] | TGI (MALME-3M melanoma) [µM] | TGI (UACC-62 melanoma) [µM] | TGI (COLO 205 colon) [µM] | TGI (PC-3 prostate) [µM]
CC(=O)NC(CCCNC(=O)N(CCCl)N=O)C(=O)NCc1ccccc1 (stereo unspecified) | > 100 | > 100 |  |  | > 100 | > 100 | > 100 | > 100 | > 100 | > 100 | > 100 | > 100 | > 100 | > 100 | > 100 | 
Cn1c(=O)c2c(nc3n2CC(=O)N3CCCCl)n(C)c1=O | > 100 | > 100 | > 100 | > 100 | > 100 | > 100 | > 100 | > 100 | > 100 | > 100 | > 100 | > 100 |  | > 100 | > 100 | > 100
CCC(C=O)P1(=O)OC(C)(C)CN1C(C)(C)C (stereo unspecified) |  | > 100 | > 100 | > 100 | > 100 | > 100 |  | > 100 | > 100 | > 100 | > 100 | > 100 | > 100 | > 100 | > 100 | > 100
C[N+](C)(C)CCc1ccccc1 | > 100 | > 100 |  | > 100 | > 100 | > 100 | > 100 | > 100 | > 100 | > 100 | > 100 | > 100 | > 100 | > 100 | > 100 | 
COCc1nc(N)nc(N2N=C(C)CC2(C)C)n1 | > 100 | > 100 | > 100 | > 100 | > 100 | > 100 | > 100 | > 100 | > 100 | > 100 | > 100 | > 100 |  | > 100 | > 100 | > 100
CCc1nn(CN2CCOCC2)c(=S)n1/N=C/c1ccc(-c2ccc(Cl)cc2)o1 | > 100 | > 100 | > 100 |  | > 100 | > 100 | > 100 | > 100 | > 100 | > 100 | > 100 | > 100 |  |  |  | > 100
c1ccc2c(c1)C1CCCCCC21N1CCOCC1 (stereo unspecified) | > 100 | > 100 |  | > 100 | > 100 | > 100 | > 100 |  | > 100 | > 100 | > 100 |  |  | > 100 | > 100 | 
COc1ccc2c(c1)C(=O)C1CC(=O)CCC21 (stereo unspecified) | > 100 | > 100 |  | > 100 | > 100 | > 100 | > 100 | > 100 | > 100 | > 100 | > 100 | > 100 | > 100 | > 100 | > 100 | 
CC(=O)CN(Cc1cc(C)c2c(c1)c1ccccc1n2Cc1ccccc1)S(=O)(=O)c1ccc(C)cc1 | > 100 | > 100 |  | > 100 | > 100 | > 100 | > 100 | > 100 | > 100 |  |  | > 100 | > 100 | > 100 | > 100 | 
O=C(CSc1nnc(Cc2ccccc2)o1)Nc1ccccc1 | > 100 | > 100 |  | > 100 |  | > 100 | > 100 | > 100 | > 100 | > 100 | > 100 |  | > 100 | > 100 | > 100 | 
COC1=CC(=O)C2=C(C1=O)[C@H]1CC[C@]3(C)[C@@H](O)CC[C@H]3[C@@H]1CC2 | 36.5 | 29.7 | 33.3 | > 100 | 57.4 | 56.8 | 38.3 | 44.4 | 30.3 | 31.3 | 31.9 | 30.5 |  | 31.2 | 22.5 | 30
CC1(C)OC(=O)C(C#N)=C1/C=C/c1coc2ccc(Cl)cc2c1=O | 53.5 | 79.3 |  | 69.7 | 57.5 | 52 | > 100 | > 100 | > 100 | > 100 |  | > 100 | 66.1 | 89.8 | > 100 | 
COc1cc(C2SCC(=O)N2c2cccc(Cl)c2)cc(OC)c1OC (stereo unspecified) |  |  | > 100 | > 100 | > 100 | > 100 | > 100 | > 100 | > 100 | > 100 | > 100 | > 100 |  | 54.3 | > 100 | > 100
O=C1CCCN1C(=O)CS(=O)(=O)c1ccccc1 | > 100 | > 100 | > 100 | > 100 | > 100 | > 100 | > 100 | > 100 | > 100 | > 100 | > 100 |  | > 100 | > 100 | > 100 | > 100
O=C(O)C12C3CCC(CC3)C1(C(=O)O)C1CCC2C1 (stereo unspecified) | > 100 | > 100 | > 100 | > 100 | > 100 | > 100 | > 100 | > 100 | > 100 | > 100 | > 100 |  | > 100 | > 100 | > 100 | > 100
CO/C(=N\N=C\c1ccc(OC)c(OC)c1)c1ccncc1 | > 10 | > 10 |  | > 10 | > 10 | > 10 |  | > 10 |  | > 10 |  | > 10 | > 10 | > 10 | > 10 | 
